Earlier results on one molecule are cited in US20240207206A1, “Improved Topical Composition of Colchicine” (Zenvision Pharma LLP, priority 2019, published 2024).

The structures appear in SMILES notation.

For the series the following is noted: in water.

For the molecule `COc1cc2c(c(OC)c1OC)-c1ccc(OC)c(=O)cc1[C@@H](NC(C)=O)CC2` [Colchicine, (S)N-(5,6,7,9-tetrahydro-1,2,3, 10-tetramethoxy-9-oxobenzo[alpha]heptalen-7-yl) acetamide], the Solubility entry is recorded as “soluble in water”.
